# Assay results published in patent publication US11884710B2, “Peptide compounds and methods of use in wound healing” (priority 2013, dated 2024).
# What was measured:
# [1] = test system: Acinetobacter baumannii ATCC BAA-747; assay: In vitro bactericidal assay, A. baumannii ATCC BAA-747 (FIGS. 10-11); assay type: cell-based; conditions: for reduction of CFU/ml: highest peptide concentration
# Experimental: (§1) Each of the test peptides was used at 25, 12.5 6.25 and 3.12 μM. The gentamicin was used at 4 μg/ml. 1×10^6/ml Acinetobacter baumannii ATCC® BAA-747™ (American Type Culture Collection, Manassas, Va.) were incubated with the peptides, negative buffer control (tryptone saline), and positive control gentamicin for 60 minutes at pH 5.5. 50 μl aliquots were plated out on agar plates and incubated overnight. Colony forming units were counted after overnight incubation and CFU/ml calculated.
# as §1, with “7.2.” for “5.5.”
# (§2) For FIGS. 10-13, in vitro bactericidal assays were performed using a starting inoculum of 1×10^6 CFU/ml of the bacterial suspension. The CFU remaining at the end of the 60-180 minute incubation was determined, and the data was plotted as log reduction in CFU/ml.
# (§3) In particular, each of the test peptides (CAP37 peptides 120-146WR, 120-146WH, and 95-122 (SEQ ID NOS:30, 31, and 26, respectively)) was used at 25, 12.5, 6.25, and 3.12 μM. Gentamicin was used at 4 μg/ml. 1×10^6/ml Acinetobacter baumannii ATCC® BAA-747™ or Pseudomonas aeruginosa ATCC® 27853™ (American Type Culture Collection, Manassas, Va.) were incubated with the peptides, negative buffer control (tryptone saline), and positive control gentamicin at pH 5.5 or 7.2. A 60 minute incubation was used for Acinetobacter baumannii ATCC® BAA-747™, while a 180 minute incubation was used for Pseudomonas aeruginosa ATCC® 27853™. 50 μl aliquots were plated out on agar plates and incubated overnight. Colony forming units were counted after overnight incubation and CFU/ml calculated.
# [2] = test system: Pseudomonas aeruginosa ATCC 27853; assay: In vitro bactericidal assay, P. aeruginosa ATCC 27853 (FIGS. 12-14); assay type: cell-based; conditions: for activity in in vitro killing assays, in words / reduction of the CFU: FIG. 14; for reduction of the CFU: peptides at 150, 75, 37.5 μg/ml; for reduction of CFU/ml: highest peptide concentration
# Experimental: as §1, with “6.25,” for “6.25”, “Pseudomonas aeruginosa” for “Acinetobacter baumannii”, “27853™” for “BAA-747™”, “180” for “60”, “7.2.” for “5.5.”
# as §1, with “12.5, 6.25,” for “12.5 6.25”, “Pseudomonas aeruginosa” for “Acinetobacter baumannii”, “27853™” for “BAA-747™”, “180” for “60”
# FIG. 14 is a comparison of bactericidal activity of CAP37 peptides 120-146WR (SEQ ID NO:30), 120-146WH (SEQ ID NO:31), 120-146QR (SEQ ID NO:28), 120-146QH (SEQ ID NO:29), 120-146QR-5RMP (SEQ ID NO:32), and 120-146QH-5RMP (SEQ ID NO:33) for Pseudomonas aeruginosa ATCC® 27853™ (American Type Culture Collection, Manassas, Va.). 1×10^6/ml Pseudomonas aeruginosa ATCC® 27853™ were incubated with the peptides at 150, 75, and 37.5 μg/ml and negative buffer control (tryptone saline) for 180 minutes at pH 5.5. 50 μl aliquots were plated out on agar plates and incubated overnight. Colony forming units were counted after overnight incubation and CFU/ml calculated.
# as §2, §3
# For FIG. 14, 1×10^6/ml Pseudomonas aeruginosa ATCC® 27853™ were incubated with each of the test peptides (CAP37 peptides 120-146WR, 120-146WH, 120-146QR, 120-146QH, 120-146QR-5RMP, and 120-146QH-5RMP (SEQ ID NOS:30, 31, 28, 29, 32, and 33, respectively)) at 150, 75, and 37.5 μg/ml, or negative buffer control (tryptone saline), for 180 minutes at pH 5.5. 50 μl aliquots were plated out on agar plates and incubated overnight. Colony forming units were counted after overnight incubation and CFU/ml calculated.
# [3] = pH 7.2, 180 minutes, 120-146WR/WH at 25 μM, 95-122 at 3.12-25 μM
Sequence,"reduction of CFU/ml ([1]; pH 5.5, 60 minutes)","reduction of CFU/ml ([1]; pH 7.2, 60 minutes)","bactericidal activity, in words ([1]; peptide at 25 μM)","activity in in vitro killing assays, in words ([2]; pH 5.5, 180 minutes)","reduction of the CFU ([2]; pH 5.5, 180 minutes)","bactericidal activity, in words [2, 3]","reduction of CFU/ml ([2]; pH 7.2, 180 minutes)","bactericidal activity, in words ([1]; peptide at 12.5 μM)","bactericidal activity, in words ([2]; 120-146WR at 25 μM, gentamicin 4 μg/ml)","bactericidal activity, in words ([1]; pH 5.5, 60 minutes, peptides 3.12-25 μM, gentamicin 4 μg/ml)","bactericidal activity, in words ([1]; pH 7.2, 60 minutes, peptides 3.12-25 μM, gentamicin 4 μg/ml)","bactericidal activity, in words ([2]; pH 5.5, 180 minutes, peptides 3.12-25 μM, gentamicin 4 μg/ml)"
GTRCQVAGWGSWHSGGRLSRFPRFVNV (derivative of peptide of CAP37 protein) [Peptide 120-146WH],~4 logs,~5.5 logs,highly active,strongly active,6 logs,as effective as the standard antibiotic gentamicin,6 logs,,,,,
GTRCQVAGWGSWRSGGRLSRFPRFVNV (derivative of peptide of Homo sapiens CAP37 protein) [Peptide 120-146WR],~4 logs,~5.5 logs,highly active,strongly active,6 logs,as effective as the standard antibiotic gentamicin,6 logs,highly active,highly active,,,
LDREANLTSSVTILPLPLQNATVEAGTR (listed as Homo sapiens) [Peptide 95-122],,,,,,not active,,,,not active,not active,not active
